In patent US20230247991A1, “ANTIMICROBIAL MIXTURE CONTAINING 4-(3-ETHOXY-4-HYDROXYPHENYL)BUTAN-2-ONE AND AN ORGANIC ACID COMPOUND, AND COSMETIC COMPOSITION CONTAINING SAME” (L'OREAL, priority 2017, published 2023):
Values joined by “and” are separate entries in the source; they are usually repeats but may differ in a detail not shown here. Identical values can stand only once. Each block holds one molecule with its values, some of them ahead of it.

Key:
Test in all cases: MIC / FIC index synergy test, 96-well microplate, optical density at 620 nm
Assay type in all cases: cell-based
[1] = system: Aspergillus niger ATCC 6275
[2] = system: Pseudomonas aeruginosa ATCC 9027; settings: for microbial growth percentage: compound alone; for MIC of compound alone: first concentration giving growth <= 25%
Excerpt: (§1) FIC Index=([…]) with: • MICa with B: minimum concentration of product A in the combination A+B which makes it possible to obtain an inhibitory effect • MICb with A: minimum concentration of product B in the combination A+B which makes it possible to obtain an inhibitory effect. • MICa: minimum inhibitory concentration of product A alone. • MICb: minimum inhibitory concentration of product B alone. […] As regards the combinations tested, MICa with b and MICb with a are the respective concentrations of A and of B in the combinations which make it possible to obtain a microbial growth percentage of less than or equal to 25%. […] The microbial strain Pseudomonas aeruginosa ATCC 9027 and a double-concentration nutritive broth liquid culture medium were used. A 96-well microplate and an incubation temperature of 32.5° C. are used. […] Successive dilutions were made with the 1‰ agar solution. 50 μl of each of the daughter solutions obtained containing compound A or B are added to the microplate wells. 100 μl of Sabouraud liquid nutrient broth inoculated at double concentration with the strain Candida albicans and 50 μl of aqueous 1‰ agar solution are also added thereto. 50 μl of each of the daughter solutions obtained containing compound A and 50 μl of each of the daughter solutions obtained containing compound B are added to the microplate wells. 100 μl of Sabouraud liquid nutrient broth inoculated at double concentration with the strain Candida albicans are also added thereto. […] The test as described above (tests, absorbance controls and growth control) was performed again to test the combination A+B on the following strains Enterococcus faecalis, Staphylococcus aureus, Pseudomonas aeruginosa, Candida albicans.

[3] = system: Enterococcus faecalis ATCC 33186; settings: compound alone; for % MIC alone: first concentration giving growth <= 25%
Excerpt: as §1, with “strain Enterococcus faecalis” for “strain Pseudomonas aeruginosa”, “ATCC 33186” for “ATCC 9027”, “double-concentration BHI (Brain Heart Infusion)” for “double-concentration nutritive”

[4] = system: Candida albicans ATCC 10231; settings: compound alone; for MIC alone: first concentration giving growth <= 25%
Excerpt: FIC Index=([…]) with: • MICa with B: minimum concentration of product A in the combination A+B which makes it possible to obtain an inhibitory effect • MICb with A: minimum concentration of product B in the combination A+B which makes it possible to obtain an inhibitory effect. • MICa: minimum inhibitory concentration of product A alone. • MICb: minimum inhibitory concentration of product B alone. […] The microbial strain Candida albicans ATCC 10231 and a double-concentration Sabouraud broth liquid culture medium were used. A 96-well microplate and an incubation temperature of 32.5° C. are used. […] Successive dilutions were made with the 1‰ agar solution. 50 μl of each of the daughter solutions obtained containing compound A or B are added to the microplate wells. 100 μl of Sabouraud liquid nutrient broth inoculated at double concentration with the strain Candida albicans and 50 μl of aqueous 1‰ agar solution are also added thereto. 50 μl of each of the daughter solutions obtained containing compound A and 50 μl of each of the daughter solutions obtained containing compound B are added to the microplate wells. 100 μl of Sabouraud liquid nutrient broth inoculated at double concentration with the strain Candida albicans are also added thereto. In the two cases (test and control), the inoculum represents the concentration of the strain Candida albicans present in the final volume of the wells (200 μl) and is between 2 and 6χ 10^5 cfu/ml of Candida albicans.

[5] = system: Staphylococcus aureus ATCC 6538; settings: compound alone; for MIC alone: first concentration giving growth <= 25%
Excerpt: FIC Index=([…]) with: • MICa with B: minimum concentration of product A in the combination A+B which makes it possible to obtain an inhibitory effect • MICb with A: minimum concentration of product B in the combination A+B which makes it possible to obtain an inhibitory effect. • MICa: minimum inhibitory concentration of product A alone. • MICb: minimum inhibitory concentration of product B alone. […] As regards the combinations tested, MICa with b and MICb with a are the respective concentrations of A and of B in the combinations which make it possible to obtain a microbial growth percentage of less than or equal to 25%. When the FIC index value is less than or equal to 1, it is considered that the combination of test compounds has a synergistic effect. The microbial strain Staphylococcus aureus ATCC 6538 and a double-concentration nutritive broth liquid culture medium were used. A 96-well microplate and an incubation temperature of 32.5° C. are used. […] Successive dilutions were made with the 1‰ agar solution. 50 μl of each of the daughter solutions obtained containing compound A or B are added to the microplate wells. 100 μl of Sabouraud liquid nutrient broth inoculated at double concentration with the strain Candida albicans and 50 μl of aqueous 1‰ agar solution are also added thereto. 50 μl of each of the daughter solutions obtained containing compound A and 50 μl of each of the daughter solutions obtained containing compound B are added to the microplate wells. 100 μl of Sabouraud liquid nutrient broth inoculated at double concentration with the strain Candida albicans are also added thereto. […] The test as described above (tests, absorbance controls and growth control) was performed again to test the combination A+B on the following strains Enterococcus faecalis, Staphylococcus aureus, Pseudomonas aeruginosa, Candida albicans.

[6] = compound alone, 0.0025 weight %
[7] = first concentration giving growth <= 25%

% MIC alone [3]: 1 weight % and 2 weight %
MIC alone [4]: 0.1 weight % and 0.2 weight %
MIC alone [5]: 0.5 weight %
Structure (SMILES): CCOc1cc(CCC(C)=O)ccc1O [A, 4-(3-ethoxy-4-hydroxyphenyl)butan-2-one]
microbial growth percentage [1, 6]: 84%
microbial growth percentage ([1]; compound alone, 0.025 weight %): 65% and 62%
microbial growth percentage ([1]; compound alone, 0.05 weight %): 40% and 32%
microbial growth percentage ([1]; compound alone, 0.0625 weight %): 84% and 96%
microbial growth percentage ([1]; compound alone, 0.125 weight %): 40% and 41%
microbial growth percentage ([1]; compound alone, 0.25 weight %): 6% and 7%
microbial growth percentage ([1]; compound alone, 0.4 weight %): 5%
MIC of compound alone [1, 7]: 0.25 weight % and 0.1 weight % and 0.4 weight % and 0.2 weight %
microbial growth percentage ([2]; 0.25 weight %): 79% and 78% and 87%
microbial growth percentage ([2]; 0.5 weight %): 74% and 52% and 64%
microbial growth percentage ([3]; 1 weight %): 15% and 28% and 16%
microbial growth percentage ([3]; 2 weight %): 24%
microbial growth percentage ([4]; 0.025 weight %): 55% and 56% and 61% and 74% and 53%
microbial growth percentage ([4]; 0.2 weight %): 6%
microbial growth percentage ([5]; 0.0625 weight %): 67% and 63% and 66%
microbial growth percentage ([5]; 0.125 weight %): 65% and 60% and 61%
microbial growth percentage ([5]; 0.25 weight %): 55% and 52% and 51%
microbial growth percentage ([5]; 0.5 weight %): 5% and 1%

Structure (SMILES): O=C([O-])c1ccccc1.[Na+] [B1, sodium benzoate]
microbial growth percentage ([2]; 0.0625 weight %): 93%
microbial growth percentage ([2]; 0.125 weight %): 96%
microbial growth percentage ([2]; 0.25 weight %): 116%
microbial growth percentage ([2]; 0.5 weight %): 89%
microbial growth percentage ([2]; 1 weight %): 0%
MIC of compound alone [2]: 1 weight %
microbial growth percentage ([4]; 0.025 weight %): 55%
microbial growth percentage ([4]; 0.05 weight %): 33%
microbial growth percentage ([4]; 0.1 weight %): 24%
microbial growth percentage ([4]; 0.2 weight %): 11%
MIC alone [4]: 0.2 weight %
microbial growth percentage ([5]; 0.0625 weight %): 51%
microbial growth percentage ([5]; 0.125 weight %): 34%
microbial growth percentage ([5]; 0.25 weight %): 31%
microbial growth percentage ([5]; 0.5 weight %): 5%
MIC alone [5]: 0.5 weight %

Structure (SMILES): C/C=C/C=C/C(=O)O [B2, sorbic acid]
microbial growth percentage ([1]; compound alone, 0.0125 weight %): 98%
microbial growth percentage ([1]; compound alone, 0.25 weight %): 95%
microbial growth percentage ([1]; compound alone, 0.5 weight %): 8%
MIC of compound alone [1, 7]: 0.5 weight %
MIC of compound alone [2]: 0.5 weight %
microbial growth percentage ([3]; 0.25 weight %): 53%
microbial growth percentage ([3]; 0.5 weight %): 78%
microbial growth percentage ([3]; 1 weight %): 0%
% MIC alone [3]: 1 weight %
microbial growth percentage ([4]; 0.025 weight %): 37%
microbial growth percentage ([4]; 0.05 weight %): 24%
microbial growth percentage ([4]; 0.1 weight %): 21%
MIC alone [4]: 0.1 weight %
microbial growth percentage ([5]; 0.125 weight %): 52%
microbial growth percentage ([5]; 0.25 weight %): 28%
microbial growth percentage ([5]; 0.5 weight %): −5%
MIC alone [5]: 0.5 weight %

Structure (SMILES): C/C=C/C=C/C(=O)[O-].[K+] [B3, potassium sorbate]
microbial growth percentage ([1]; compound alone, 0.025 weight %): 58%
microbial growth percentage ([1]; compound alone, 0.05 weight %): 37%
microbial growth percentage ([1]; compound alone, 0.1 weight %): 10%
% MIC alone ([1]; compound alone, first concentration giving growth <= 25%): 0.1 weight %
microbial growth percentage ([3]; 1 weight %): 22%
microbial growth percentage ([3]; 2 weight %): 10%
% MIC alone [3]: 2 weight %

MIC of compound alone [2]: 0.5 weight %
MIC alone [4]: 0.2 weight %
MIC alone [5]: 1 weight %
Structure (SMILES): COC(=O)c1ccc(O)cc1 [B4, methyl 4-hydroxybenzoate]
microbial growth percentage ([2]; 0.0625 weight %): 187%
microbial growth percentage ([2]; 0.125 weight %): 150%
microbial growth percentage ([2]; 0.25 weight %): 142%
microbial growth percentage ([2]; 0.5 weight %): 1%
microbial growth percentage ([4]; 0.025 weight %): 67%
microbial growth percentage ([4]; 0.05 weight %): 40%
microbial growth percentage ([4]; 0.1 weight %): 28%
microbial growth percentage ([4]; 0.2 weight %): 12%
microbial growth percentage ([5]; 0.25 weight %): 51%
microbial growth percentage ([5]; 0.5 weight %): 44%
microbial growth percentage ([5]; 1 weight %): 19%

MIC of compound alone [2]: 1 weight %
MIC alone [4]: 0.1 weight %
Structure (SMILES): CCCOC(=O)c1ccc(O)cc1 [B5, propyl 4-hydroxybenzoate]
microbial growth percentage ([2]; 0.125 weight %): 76%
microbial growth percentage ([2]; 0.25 weight %): 45%
microbial growth percentage ([2]; 0.5 weight %): 42%
microbial growth percentage ([2]; 1 weight %): 24%
microbial growth percentage ([4]; 0.025 weight %): 52%
microbial growth percentage ([4]; 0.05 weight %): 33%
microbial growth percentage ([4]; 0.1 weight %): 21%

MIC of compound alone [1, 7]: 0.1 weight %
% MIC alone [3]: 0.025 weight %
MIC alone [4]: 0.1 weight %
Structure (SMILES): CCCCCCCC(=O)c1ccc(O)c(C(=O)O)c1 [B6, 5-n-octanoylsalicylic acid]
microbial growth percentage ([1]; compound alone, 0.025 weight %): 98%
microbial growth percentage ([1]; compound alone, 0.05 weight %): 97%
microbial growth percentage ([1]; compound alone, 0.1 weight %): 17%
microbial growth percentage ([3]; 0.0125 weight %): 28%
microbial growth percentage ([3]; 0.025 weight %): 2%
microbial growth percentage ([4]; 0.0125 weight %): 66%
microbial growth percentage ([4]; 0.025 weight %): 40%
microbial growth percentage ([4]; 0.05 weight %): 30%
microbial growth percentage ([4]; 0.1 weight %): 1%

Structure (SMILES): CC(=O)c1c([O-])cc(C)oc1=O.[Na+] [B8, sodium dehydroacetate]
microbial growth percentage [1, 6]: 97%
microbial growth percentage ([1]; compound alone, 0.005 weight %): 29%
microbial growth percentage ([1]; compound alone, 0.01 weight %): 3%
microbial growth percentage ([1]; compound alone, 0.02 weight %): 3%
MIC of compound alone [1, 7]: 0.02 weight %
microbial growth percentage ([4]; 0.00125 weight %): 28%
microbial growth percentage ([4]; 0.0025 weight %): 15%
MIC alone [4]: 0.0025 weight %
